Measurements taken from US10829796B2, “Bacteria identification and antimicrobial susceptibility test” (priority 2015, dated 2020).

System: bacteria in clinical bovine mastitis milk samples
Experiment: Combined bacteria identification and antimicrobial susceptibility test (colour of wells, MIC) on clinical bovine mastitis milk samples
Type: cell-based
Method: Clinical bovine mastitis milk samples were collected by a vet clinic in South Island, New Zealand. Samples were stored in the freezer for several months and shipped frozen to the testing facility. In this Example, the term “clinical” means that dairy cows had clinical symptoms of an udder infection e.g. cow behaved unusual, milk clots, swollen udder among other typical symptoms. Testing was executed in microwell plate comprising of 24 wells (3×8 wells).
In addition, 20 ul of clinical mastitis sample was added to each well with a laboratory pipette.
Abbreviations • 1. 80 ul GC+10 ul Tell: 80 ul Giolitti Cantoni base broth+10 ul Tellurite solution (1%); • 2. 80 ul TSB/Esc/Fer Cit: 80 ul Tryptic soy broth containing 0.25% Esculin and 0.125% Ammonium Ferric Citrate; • 3. 80 ul TSB/Esc/Fer Cit+10 ul Genta: 80 ul Tryptic soy broth containing 0.25% Esculin and 0.125% Ammonium Ferric Citrate+10 ul of Gentamycin solution 10 mg/ml; • 4. 80 ul McC/PR25: 80 ul MacConkey broth (single strength) containing 0.0125% phenol red; and • 5. 80 ul TSB/PR25: 80 ul Tryptic soy broth containing 0.0125% phenol red. Bacteria Identification
Columns A to C and rows 1 and 2 were used for bacteria identification. A1: coagulase positive Staph; A2: Staphylococci; B1: Strep group D; B2: Strep group D; C1: general enrichment media (gram+ and gram-bacteria); C2: coliform bacteria.
Column A3 to A8: serial dilution of benzyl penicillin as potassium. Column B3 to B8: serial dilution of ceftiofur as hydrochloride. Column C3 to C8: serial dilution of cloxacillin as sodium. Antibiotic concentrations are listed as free form ranging between 4 ug/ml to 0.05 ug/ml.
Minimum inhibitory substance concentration (MIC) is here defined as the concentration if a colour change occurs between two wells (one well remains red with drug concentration 1, the other one yellow with drug concentration 2, whereas drug concentration 1 is larger than drug concentration 2) then the MIC is the value of drug concentration 1.
Table 21 indicates the microwell plate configuration #1; Drugs: Benzylpenicillin as potassium; Cloxacillin as sodium; Ceftiofur as hydrochloride; Drug concentration in each well (A3 to C8) is based on 80 μl composition+10 μl drug solution+20 μl clinical mastitis milk sample and equivalent to listed drug concentration in μg/ml; 20 ul of clinical bovine mastitis milk sample was added to each well (A1 to C8).
In addition, each well received one drop of clinical sample from a transfer pipette which was on average about 35 mg. This was determined through weighing the well plate prior and after the addition of clinical mastitis samples. This weight was then divided by 24.
• 1. 80 ul GC+10 ul Tell: 80 ul Giolitti Cantoni base broth+10 ul Tellurite solution (1%); • 2. 80 ul TSB/Esc/Fer Cit: 80 ul Tryptic soy broth containing 0.25% Esculin and 0.125% Ammonium Ferric Citrate; • 3. 80 ul TSB/Esc/Fer Cit+10 ul Genta: 80 ul Tryptic soy broth containing 0.25% Esculin and 0.125% Ammonium Ferric Citrate+10 ul of Gentamycin solution 10 mg/ml; • 4. 80 ul McC/PR25: 80 ul MacConkey broth (single strength) containing 0.0125% phenol red; and • 5. 80 ul TSB/PR25: 80 ul Tryptic soy broth containing 0.0125% phenol red.
Columns A to C and rows 1 and 2 were used for bacteria identification. A1: coagulase positive Staph; A2: Staphylococci; B1: Strep Group D; B2: -; C1: general enrichment media (gram+ and gram-); C2: coliform bacteria.
Column A3 to A8: serial dilution of benzyl penicillin as potassium. Drug concentrations given as free form ranging between 4 ug/ml to 0.05 ug/ml. Column B3 to B8: serial dilution of ceftiofur as hydrochloride. Drug concentrations given as free form ranging between 4 ug/ml to 0.05 ug/ml. Column C3 to C8: serial dilution of cloxacillin as sodium. Drug concentrations given as free form ranging between 4 ug/ml to 0.05 ug/ml.

Cc1onc(-c2ccccc2Cl)c1C(=O)N[C@@H]1C(=O)N2[C@@H]1SC(C)(C)[C@@H]2C(=O)O [cloxacillin]
Colour of media in each well (ID 5 to 8, T = 0 h (prior incubation, reference), plate configuration #2, drug 1 μg/ml): red | Colour of media in each well (ID 5 to 8, T = 0 h (prior incubation, reference), plate configuration #2, drug 2 μg/ml): red | Colour of media in each well (ID 5 to 8, T = 0 h (prior incubation, reference), plate configuration #2, drug 4 μg/ml): red | Colour of media in each well (ID 6, T = 23h, 37° C., plate configuration #2, drug 0.05 μg/ml (Table 31)): yellow | Colour of media in each well (ID 6, T = 23h, 37° C., plate configuration #2, drug 0.1 μg/ml (Table 31)): yellow | Colour of media in each well (ID 6, T = 23h, 37° C., plate configuration #2, drug 0.5 μg/ml (Table 31)): yellow | Colour of media in each well (ID 6, T = 23h, 37° C., plate configuration #2, drug 1 μg/ml (Table 31)): yellow | Colour of media in each well (ID 6, T = 23h, 37° C., plate configuration #2, drug 2 μg/ml (Table 31)): yellow | Colour of media in each well (ID 6, T = 23h, 37° C., plate configuration #2, drug 4 μg/ml (Table 31)): yellow | Colour of media in each well (ID 6, T~7 h, 37° C., plate configuration #2, Table 35, drug 0.05 μg/ml): yellow | Colour of media in each well (ID 6, T~7 h, 37° C., plate configuration #2, Table 35, drug 0.1 μg/ml): yellow | Colour of media in each well (ID 6, T~7 h, 37° C., plate configuration #2, Table 35, drug 0.5 μg/ml): yellow | Colour of media in each well (ID 6, T~7 h, 37° C., plate configuration #2, Table 35, drug 1 μg/ml): yellow | Colour of media in each well (ID 6, T~7 h, 37° C., plate configuration #2, Table 35, drug 2 μg/ml): yellow | Colour of media in each well (ID 6, T~7 h, 37° C., plate configuration #2, Table 35, drug 4 μg/ml): yellow | Colour of media in each well (ID 6, T~11 h, 37° C., plate configuration #2, Table 35, drug 0.05 μg/ml): yellow | Colour of media in each well (ID 6, T~11 h, 37° C., plate configuration #2, Table 35, drug 0.1 μg/ml): yellow | Colour of media in each well (ID 6, T~11 h, 37° C., plate configuration #2, Table 35, drug 0.5 μg/ml): yellow | Colour of media in each well (ID 6, T~11 h, 37° C., plate configuration #2, Table 35, drug 1 μg/ml): yellow | Colour of media in each well (ID 6, T~11 h, 37° C., plate configuration #2, Table 35, drug 2 μg/ml): yellow | Colour of media in each well (ID 6, T~11 h, 37° C., plate configuration #2, Table 35, drug 4 μg/ml): yellow | Colour of media in each well (ID 6, T~23 h, 37° C., plate configuration #2, Table 35, drug 0.05 μg/ml): yellow | Colour of media in each well (ID 6, T~23 h, 37° C., plate configuration #2, Table 35, drug 0.1 μg/ml): yellow | Colour of media in each well (ID 6, T~23 h, 37° C., plate configuration #2, Table 35, drug 0.5 μg/ml): yellow | Colour of media in each well (ID 6, T~23 h, 37° C., plate configuration #2, Table 35, drug 1 μg/ml): yellow | Colour of media in each well (ID 6, T~23 h, 37° C., plate configuration #2, Table 35, drug 2 μg/ml): yellow | Colour of media in each well (ID 6, T~23 h, 37° C., plate configuration #2, Table 35, drug 4 μg/ml): yellow | Colour of media in each well (ID 7, T = 23h, 37° C., plate configuration #2, drug 0.05 μg/ml): yellow | Colour of media in each well (ID 7, T = 23h, 37° C., plate configuration #2, drug 0.1 μg/ml): yellow | Colour of media in each well (ID 7, T = 23h, 37° C., plate configuration #2, drug 0.5 μg/ml): red | Colour of media in each well (ID 7, T = 23h, 37° C., plate configuration #2, drug 1 μg/ml): red | Colour of media in each well (ID 7, T = 23h, 37° C., plate configuration #2, drug 2 μg/ml): red | Colour of media in each well (ID 7, T = 23h, 37° C., plate configuration #2, drug 4 μg/ml): red | Colour of media in each well (ID 8, T = 23 h, 37° C., plate configuration #2, drug 0.05 μg/ml): yellow | Colour of media in each well (ID 8, T = 23 h, 37° C., plate configuration #2, drug 0.1 μg/ml): yellow | Colour of media in each well (ID 8, T = 23 h, 37° C., plate configuration #2, drug 0.5 μg/ml): red | Colour of media in each well (ID 8, T = 23 h, 37° C., plate configuration #2, drug 1 μg/ml): red | Colour of media in each well (ID 8, T = 23 h, 37° C., plate configuration #2, drug 2 μg/ml): red | Colour of media in each well (ID 8, T = 23 h, 37° C., plate configuration #2, drug 4 μg/ml): red | Colour of media in each well (Table 24, sample ID 2, 22 hours at 37° C., plate configuration #1, row 3 of serial dilution 4 ug/ml to 0.05 ug/ml): red | Colour of media in each well (Table 24, sample ID 2, 22 hours at 37° C., plate configuration #1, row 4 of serial dilution 4 ug/ml to 0.05 ug/ml): red | Colour of media in each well (Table 24, sample ID 2, 22 hours at 37° C., plate configuration #1, row 5 of serial dilution 4 ug/ml to 0.05 ug/ml): red | Colour of media in each well (Table 24, sample ID 2, 22 hours at 37° C., plate configuration #1, row 6 of serial dilution 4 ug/ml to 0.05 ug/ml): red | Colour of media in each well (Table 24, sample ID 2, 22 hours at 37° C., plate configuration #1, row 7 of serial dilution 4 ug/ml to 0.05 ug/ml): yellow | Colour of media in each well (Table 24, sample ID 2, 22 hours at 37° C., plate configuration #1, row 8 of serial dilution 4 ug/ml to 0.05 ug/ml): yellow | MIC (clinical sample ID 1 (streptococci group D), 37° C. for 22 hours, plate configuration #1): 0.5 µg/mL | MIC (clinical sample ID 2 (streptococci group D, also coagulase positive Staph), 37° C. for 22 hours, plate configuration #1): 0.5 µg/mL | MIC (clinical sample ID 4 (coagulase positive Staph), 37° C. for 22 hours, plate configuration #1): 0.5 µg/mL | MIC (clinical sample ID 5 (streptococci group D), 37° C. for 23 hours, plate configuration #2): 0.5 µg/mL | MIC (clinical sample ID 7 (coagulase positive Staph), 37° C. for 23 hours, plate configuration #2): 0.5 µg/mL | MIC (clinical sample ID 8 (coagulase negative Staph and Streptococci group D), 37° C. for 23 hours, plate configuration #2): 0.5 µg/mL
